Laboratory results: patent US20220251081A1, “HETEROBICYCLIC INHIBITORS OF MAT2A AND METHODS OF USE FOR TREATING CANCER” (priority 2019, published 2022)

Key:
HCT116 MTAP-/- = test: Inhibition of cellular proliferation, 4 days, Cell Titer Glo, HCT116 MTAP-/-; format: cell-based; details: Homo sapiens, HCT-116, 96 h, IC50 score, read-out: 4 Day Relative Growth Inhibition (MTAP −/−)
Experimental: (§1) Assay for Inhibition of Cellular Proliferation
(§2) Test compound impact on cancer cell growth was assessed by treating cancer cells with compound for 4 days and then measuring proliferation using an ATP-based cell proliferation readout (Cell Titer Glo, Promega Corporation).
(§3) In a typical assay an isogenic pair of HCT116 human colon carcinoma cell lines which vary only in MTAP deletion status (HCT116 MTAP +/+ and HCT116 MTAP−/−) were plated in 96-well dishes at appropriate cell density. Following 24 hours, cells were then treated with the candidate MAT2A inhibitor. Prior to addition to cells, the compound was first serially diluted in 100% DMSO, typically as a 3-fold serial dilution starting at 500× top dose with 10 dose points including DMSO only control. Compound was then transferred to a working stock plate in cell culture media by adding 5 μL of compound in DMSO to 495 μL of cell culture media. This working stock was then added to cells via a further 5-fold dilution, by adding 25 μL of working stock to 100 μL of cells in culture media. Following compound addition, cells were incubated at 37° C./5% C02 for 4 days.
(§4) To measure inhibition of cellular proliferation, cells were allowed to equilibrate to room temperature for 30 minutes, and were then treated with 125 μL of Cell Titer Glo reagent. The plate was then covered with aluminum foil and shaken for 15 minutes to ensure complete mixing and full cell lysis. Luminescent signal was then measured using a plate-based luminometer Veritas version 1.9.2 using ATP standard curve to confirm assay reproducibility from run to run. This luminescence measure was converted to a proliferation index by subtracting from each data point the ATP luminescence signal measured from a bank (no cells) well and dividing by the ATP luminescence signal measured in 0.2% DMSO control well adjusted for signal in blank well. Compound activity was then represented as a percentage change in proliferation relative to a within-plate DMSO control against log 10 of compound concentration in molar (M) units.

HCT116 MTAP +/+ = test: Inhibition of cellular proliferation, 4 days, Cell Titer Glo, HCT116 MTAP+/+; format: cell-based; details: Homo sapiens, HCT-116, 96 h, IC50 score, read-out: 4 Day Relative Growth Inhibition (MTAP +/+)
Experimental: as §1, §2, §3, §4

[1] = test system: SAM in HCT116 human colon carcinoma cell line with deleted MTAP gene; test: Cellular assay of target engagement (SAM): SAM level by LC-MS/MS after 72 hrs; format: cell-based; details: HCT-116, IC50 score, read-out: Cell 72 h SAM Inhibition (MTAP −/−)
Experimental: Cellular Assay of Target Engagement (SAM)
Measurement of MAT2A activity in cells was made by direct quantitation of the abundance of the product of its enzymatic activity, SAM. Cancer cells were treated with candidate MAT2A inhibitors for a suitable incubation period, and the cells were then lysed using a reagent which quenched any further enzyme activity. Soluble metabolites including SAM were collected and SAM itself was directly measured from the lysate using quantitative LC-MS/MS.
A typical assay was performed using an HCT116 human colon carcinoma cell line which was genetically engineered to delete the MTAP gene (commercially available from Horizon Discovery). This cell line was utilized because it was determined that loss of the MTAP gene predicts sensitivity to MAT2A inhibitors. Cells were plated in 96-well dishes at appropriate cell density. Following 24 hours, cells were then treated with the candidate MAT2A inhibitor. Prior to addition to cells, the compound was first serially diluted in 100% DMSO, typically as a 3-fold serial dilution starting at 500× top dose with 10 dose points including DMSO only control. Compound was then transferred to a working stock plate in cell culture media by adding 5 μL of compound in DMSO to 495 μL of cell culture media. This working stock was then added to cells via a further 5-fold dilution, by adding 25 μL of working stock to 100 μL of cells in culture media. Following compound addition, cells were incubated at 37° C./5% CO2 for 72 hrs.
To quantitate SAM levels following compound treatment, cells were gently washed once in ammonium carbonate buffer (75 mM at pH 7.4), placed on dry ice, and lysed with metabolite extraction buffer (80% cold methanol and 20% water (v/v) with acetic acid at 1M final concentration with 200 ng/mL deuterated d3-SAM as internal control). Following centrifugation at 4° C. at 3,200 rpm for 30 minutes, the supernatant was collected and stored at −80° C. until analysis by Liquid Chromatography with tandem Mass Spectrometry (LC-MS/MS). LC-MS/MS analysis was performed using an API6500 Mass Spectrometer (Sciex, Framingham, Mass., USA) operating in positive ion spray mode and equipped with a Waters UPLC Acquity (Waters, Milford, Mass., USA) BEH Amide column. Multiple Reaction Monitoring data was acquired for SAM and the d3-SAM standard, using a mass transition pair at m/z 399.2→250.1 and 402.2→250.1, respectively. In a typical LC-MS/MS analysis, the initial flow rate was 0.5 ml/min of 25% mobile phase A (acetonitrile and water at 5:95 (v/v) with 1% formic acid and 10 mM ammonium acetate) and 75% mobile phase B (acetonitrile and water at 95:5 (v/v) with 1% formic acid and 10 mM ammonium acetate), 0.2-0.5 minutes with 75%-35% mobile phase B, 25%-65% mobile phase A, at 0.5 min 65% mobile phase A and 35% mobile phase B, 1.0-1.1 minutes with 35%-75% mobile phase B, 65%-25% mobile phase A, at 1.1 min 25% mobile phase A and 75% mobile phase B with a total run time of 1.5 minutes.

MAT2A homodimer = molecular target: T1, MAT2A homodimer (Homo sapiens, UniProt P31153); test: Biochemical assay: inhibition of recombinant MAT2A homodimer (phosphate release, PiColorLock Gold); details: MAT2A IC50 score; read-out: Enzyme Inhibition
T1 construct: inferred from Ni sepharose purification and imidazole elution; made in house; host or cells: Sf9 insect cells, recombinant baculovirus (Bac to Bac, pFASTBAC1 vector)
In short: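 Baculovirus/Sf9-expressed, Ni-purified MAT2A at 4 μg/mL in pH 8.0 Tris/KCl/MgCl2/EDTA/BSA buffer, preincubated with compound 60 min at 25 °C. Started with ATP and L-methionine substrate mix (500 μM and 40 μM, stock in mix), 60 min at 25 °C; released phosphate by PiColorLock Gold against a phosphate standard curve.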

T1 sequence (P31153 whole entry): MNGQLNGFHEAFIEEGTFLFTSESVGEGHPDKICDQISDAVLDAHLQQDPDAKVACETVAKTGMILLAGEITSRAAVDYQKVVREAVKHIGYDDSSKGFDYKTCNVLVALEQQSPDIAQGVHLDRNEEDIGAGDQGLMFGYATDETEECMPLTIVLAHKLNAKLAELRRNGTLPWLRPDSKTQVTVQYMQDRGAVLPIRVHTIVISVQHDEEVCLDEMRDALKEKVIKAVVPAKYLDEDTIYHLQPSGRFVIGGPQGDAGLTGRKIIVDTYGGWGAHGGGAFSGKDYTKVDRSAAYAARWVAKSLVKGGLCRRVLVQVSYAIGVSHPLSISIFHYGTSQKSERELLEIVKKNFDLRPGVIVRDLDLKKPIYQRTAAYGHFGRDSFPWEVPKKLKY

CCOc1ccc2cc(-c3ccc4nnn(C)c4c3)c(=O)n(-c3ccc(Cl)cc3)c2n1 [Example 200]
IC50 (HCT116 MTAP-/-): < 100 nM
IC50 (HCT116 MTAP +/+): 100 to 1000 nM
IC50 [1]: < 100 nM
IC50 (MAT2A homodimer): < 100 nM

CCOc1ccc2cc(-c3ccc4nn(C)nc4c3)c(=O)n(-c3ccc(Cl)cc3)c2n1 [Example 201]
IC50 (HCT116 MTAP-/-): < 100 nM
IC50 (HCT116 MTAP +/+): ≥ 1000 nM
IC50 [1]: < 100 nM
IC50 (MAT2A homodimer): < 100 nM

CCOc1ccc2cc(-c3ccnc(OC)c3)c(=O)n(-c3ccc(Cl)cc3)c2n1 [Example 202]
IC50 (HCT116 MTAP-/-): 100 to 1000 nM
IC50 (HCT116 MTAP +/+): ≥ 1000 nM
IC50 [1]: 100 to 1000 nM
IC50 (MAT2A homodimer): < 100 nM

CCOc1ccc2cc(-c3ccc4ncsc4c3)c(=O)n(-c3ccc(Cl)cc3)c2n1 [Example 203]
IC50 (HCT116 MTAP-/-): < 100 nM
IC50 (HCT116 MTAP +/+): ≥ 1000 nM
IC50 [1]: < 100 nM
IC50 (MAT2A homodimer): < 100 nM

CCOc1ccc2cc(-c3ccn4nccc4c3)c(=O)n(-c3ccc(Cl)cc3)c2n1 [Example 204]
IC50 (HCT116 MTAP-/-): < 100 nM
IC50 (HCT116 MTAP +/+): ≥ 1000 nM
IC50 [1]: < 100 nM
IC50 (MAT2A homodimer): < 100 nM

CCOc1ccc2cc(-c3ccc4nncn4c3)c(=O)n(-c3ccc(Cl)cc3)c2n1 [Example 205]
IC50 (HCT116 MTAP-/-): < 100 nM
IC50 (HCT116 MTAP +/+): ≥ 1000 nM
IC50 [1]: < 100 nM
IC50 (MAT2A homodimer): < 100 nM

CCOc1ccc2cc(-c3ccc4nn(CC(C)(C)O)cc4c3)c(=O)n(-c3ccc(OC(F)F)cc3)c2n1 [Example 207]
IC50 (HCT116 MTAP-/-): 100 to 1000 nM
IC50 (HCT116 MTAP +/+): 100 to 1000 nM
IC50 [1]: < 100 nM
IC50 (MAT2A homodimer): < 100 nM

CCOc1ccc2cc(-c3ccc(=O)n(C)c3)c(=O)n(-c3ccc(OC(F)F)cc3)c2n1 [Example 208]
IC50 (HCT116 MTAP-/-): < 100 nM
IC50 (HCT116 MTAP +/+): 100 to 1000 nM
IC50 [1]: < 100 nM
IC50 (MAT2A homodimer): < 100 nM

CCOc1ccc2cc(-c3ccc4nnn(C)c4c3)c(=O)n(-c3ccc(OC(F)F)cc3)c2n1 [Example 209]
IC50 (HCT116 MTAP-/-): < 100 nM
IC50 (HCT116 MTAP +/+): 100 to 1000 nM
IC50 [1]: < 100 nM
IC50 (MAT2A homodimer): < 100 nM

CCOc1ccc2cc(-c3ccc4nccn4c3)c(=O)n(-c3ccc(OC(F)F)cc3)c2n1 [Example 210]
IC50 (HCT116 MTAP-/-): < 100 nM
IC50 (HCT116 MTAP +/+): 100 to 1000 nM
IC50 [1]: < 100 nM
IC50 (MAT2A homodimer): < 100 nM

CCOc1ccc2cc(-c3ccc4nn(CC(C)(C)O)cc4c3)c(=O)n(-c3ccc(OC(F)F)nc3)c2n1 [Example 213]
IC50 (HCT116 MTAP-/-): 100 to 1000 nM
IC50 (HCT116 MTAP +/+): ≥ 1000 nM
IC50 [1]: 100 to 1000 nM
IC50 (MAT2A homodimer): < 100 nM

O=c1c(-c2ccc3nncn3c2)cc2ccc(OCC(F)(F)F)nc2n1-c1ccc(Cl)cc1 [Example 214]
IC50 (HCT116 MTAP-/-): 100 to 1000 nM
IC50 (HCT116 MTAP +/+): ≥ 1000 nM
IC50 [1]: < 100 nM
IC50 (MAT2A homodimer): < 100 nM

CCOc1ccc2cc(-c3ccc4nncn4c3)c(=O)n(-c3ccc(OC(F)F)cc3)c2n1 [Example 216]
IC50 (HCT116 MTAP-/-): < 100 nM
IC50 (HCT116 MTAP +/+): ≥ 1000 nM
IC50 [1]: < 100 nM
IC50 (MAT2A homodimer): < 100 nM

CCOc1ccc2cc(-c3ccc4nncn4c3)c(=O)n(-c3ccc(OC)cc3)c2n1 [Example 217]
IC50 (HCT116 MTAP-/-): < 100 nM
IC50 (HCT116 MTAP +/+): ≥ 1000 nM
IC50 [1]: < 100 nM
IC50 (MAT2A homodimer): < 100 nM

O=c1c(-c2ccc3nncn3c2)cc2ccc(OCC(F)F)nc2n1-c1ccc(Cl)cc1 [Example 218]
IC50 (HCT116 MTAP-/-): < 100 nM
IC50 (HCT116 MTAP +/+): ≥ 1000 nM
IC50 [1]: < 100 nM
IC50 (MAT2A homodimer): < 100 nM
